Read-outs that look alike come from different tables or passages of the source.
What was measured:
MCF-7 cells [1] = experiment: MTT cell viability assay, MCF-7; type: cell-based; details: Homo sapiens, read-out: Cytotoxicity IC50
Experimental: (§1) MDA-MB-468, MDA-MB-231, and MCF-7 cell lines were sourced from the National Collection of Authenticated Cell Culture, China. Cells were maintained in DMEM medium supplemented with 10% FBS and 1% penicillin/streptomycin, and incubated at 37°C in a humidified atmosphere containing 5% CO2.
(§2) The viability of cells was assessed using the MTT assay. Cells were seeded at a density of 3×10^3 cells per well in a 96-well plate and treated with varying concentrations (0.05, 0.2, 0.8, 3.2, 6.4, 12.8 µM) of the compounds for 72 h. Post-incubation, 100 µL of MTT solution (0.5 mg/mL) was added to each well and further incubated for 4 h. The resulting formazan crystals were dissolved in 150 µL DMSO, and the absorbance was measured at 570 nm using a microplate reader.

[2] = target: T1, recombinant BRD4 (BD1 + BD2) (Homo sapiens, UniProt O60885); experiment: BRD4 TR-FRET activity assay; type: binding; details: for inhibition at 1 µM: 1 μmol/L, read-out: BRD4 inhibition rate; for IC50: TR-FRET, BRD4 (BD1 + BD2);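 on all read-outs here: signal rises with BET ligand binding to the bromodomains, so inhibitors lower it, 120 min incubation at room temperature, 1% DMSO, wells lacking ligand as negative control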
T1 construct: employing a recombinant BRD4 (BD1 + BD2) and its corresponding ligand
Experimental: The BRD4 activity assay utilized TR-FRET technology, employing a recombinant BRD4 (BD1 + BD2) and its corresponding ligand. The TR-FRET signal generated in the assay is proportional to the ligand’s binding to the bromodomains. All reactions contained a final DMSO concentration of 1%. All binding reactions were conducted at room temperature. Each 20 µL reaction mixture, in assay buffer, comprised bromodomains, the BET Ligand, and the specified inhibitor amount. For the negative control, 5 µL of assay buffer replaced the BET ligand. After a 120-min incubation with the ligand, the TR-FRET signal was captured using a Tecan Infinite M1000 plate reader. IC50 values were determined through nonlinear regression with a normalized dose-response fit in Prism GraphPad software.

PARP1 = PARP1 (Homo sapiens, UniProt P09874); experiment: PARP1 enzymatic activity ELISA; type: biochemical; details: 0.5 μmol/L; read-out: PARP1 inhibition rate
Experimental: The inhibition of PARP1 enzymatic activity by the tested compounds was gauged using an ELISA in 96-well plates. Each well was pre-coated with histone (20 μg/mL) in 100 μL of PBS buffer and incubated overnight at 4 °C. […] This was followed by the addition of 5 μL of either the compound at varying concentrations or a solvent control. The reaction was initiated by adding 20 μL of PARP (50 ng/well) and incubating at 30°C for 1 h. Post-reaction, 50 µL of streptavidin-conjugated HRP was introduced, and the assay continued at 30°C for an additional 30 min. Finally, 100 μL of a solution containing H2O2 and luminol in 0.1 M citrate buffer (pH 5.4) was added, and the luminescent signal was recorded using a Molecular Devices SpectraMax M5 microplate reader.

MDA-MB-231 cells = experiment: MTT cell viability assay, MDA-MB-231; type: cell-based; details: Homo sapiens, read-out: Cytotoxicity IC50
Experimental: as §1, §2

MDA-MB-468 cells = experiment: MTT cell viability assay, MDA-MB-468; type: cell-based; details: Homo sapiens, read-out: Cytotoxicity IC50
Experimental: as §1, §2

MCF-7 cells [3] = experiment: Wound scratch cell migration assay; type: cell-based; details: MCF-7, wound scratch, 1 μM, 48 h
Experimental: MCF-7 cells were seeded in 6-well plates at a density of 5×10^5 cells/well and incubated overnight. A scratch was made in the cell monolayer using a 10 µL pipette tip. […] Images were captured at 0, 12, 24, and 48-h intervals.

Sequence of PARP1 (P09874 whole entry): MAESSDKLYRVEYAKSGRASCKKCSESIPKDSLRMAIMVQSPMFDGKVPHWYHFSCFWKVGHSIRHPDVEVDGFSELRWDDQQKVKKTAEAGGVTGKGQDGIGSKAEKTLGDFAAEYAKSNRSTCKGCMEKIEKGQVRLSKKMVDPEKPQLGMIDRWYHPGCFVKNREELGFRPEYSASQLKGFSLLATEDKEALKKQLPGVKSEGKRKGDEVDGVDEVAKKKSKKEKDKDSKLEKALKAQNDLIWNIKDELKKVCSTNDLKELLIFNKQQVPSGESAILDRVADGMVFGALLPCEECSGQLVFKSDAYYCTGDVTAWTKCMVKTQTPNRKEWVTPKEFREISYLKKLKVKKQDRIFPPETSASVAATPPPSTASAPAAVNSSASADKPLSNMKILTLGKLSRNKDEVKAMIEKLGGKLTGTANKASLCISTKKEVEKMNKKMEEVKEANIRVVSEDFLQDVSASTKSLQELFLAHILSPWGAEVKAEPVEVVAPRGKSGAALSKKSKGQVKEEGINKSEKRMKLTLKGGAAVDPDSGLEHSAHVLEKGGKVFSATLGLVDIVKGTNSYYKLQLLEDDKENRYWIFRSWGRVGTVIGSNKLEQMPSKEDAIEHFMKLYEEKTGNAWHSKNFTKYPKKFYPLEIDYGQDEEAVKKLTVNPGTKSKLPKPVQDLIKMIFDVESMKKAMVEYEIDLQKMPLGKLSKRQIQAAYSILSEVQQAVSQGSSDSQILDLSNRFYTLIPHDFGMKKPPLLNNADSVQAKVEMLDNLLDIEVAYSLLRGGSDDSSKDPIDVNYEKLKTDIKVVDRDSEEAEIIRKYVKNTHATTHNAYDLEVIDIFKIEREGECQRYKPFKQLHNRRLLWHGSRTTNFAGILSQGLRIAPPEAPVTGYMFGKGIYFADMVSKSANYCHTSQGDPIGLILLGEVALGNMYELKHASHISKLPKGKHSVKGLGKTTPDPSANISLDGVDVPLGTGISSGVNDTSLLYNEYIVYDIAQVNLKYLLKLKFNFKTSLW

## Cc1noc(C)c1-c1cc(Cc2n[nH]c(=O)c3ccccc23)cc(C(=O)N2CC[C@H](O)C2)c1 [DDT14]
MCF-7 cells [1]; MCF7, MCF-7, MTT, 72 h
  IC50: > 20 µM
other
  melting point: 204 to 205 °C
[2]
  inhibition at 1 µM: 74%
  IC50: 1.1 ± 0.45 µM
PARP1
  inhibition at 0.5 µM: 53%
MDA-MB-231 cells; MDA-MB-231, MTT, 72 h
  IC50: 8.29 µM
MDA-MB-468 cells; MDA-MB-468, MTT, 72 h
  IC50: 14.4 µM

## Cc1ccccc1C(=O)Nc1cc(Cc2n[nH]c(=O)c3ccccc23)cc(-c2c(C)noc2C)c1 [DDT23]
MCF-7 cells [1]; MCF7, MCF-7, MTT, 72 h
  IC50: 18.7 µM
[2]
  inhibition at 1 µM: 97%
MDA-MB-231 cells; MDA-MB-231, MTT, 72 h
  IC50: 8.83 µM
MDA-MB-468 cells; MDA-MB-468, MTT, 72 h
  IC50: 10.6 µM

## Cc1cccc(C(=O)Nc2cc(Cc3n[nH]c(=O)c4ccccc34)cc(-c3c(C)noc3C)c2)c1 [DDT24]
MCF-7 cells [1]; MCF7, MCF-7, MTT, 72 h
  IC50: 12.8 µM
other
  melting point: > 250 °C
[2]
  inhibition at 1 µM: 91%
  IC50: 1.88 ± 0.6 µM
MDA-MB-231 cells; MDA-MB-231, MTT, 72 h
  IC50: 8.23 µM
MDA-MB-468 cells; MDA-MB-468, MTT, 72 h
  IC50: 9.09 µM

## Cc1ccc(C(=O)Nc2cc(Cc3n[nH]c(=O)c4ccccc34)cc(-c3c(C)noc3C)c2)cc1 [DDT25]
MCF-7 cells [1]; MCF7, MCF-7, MTT, 72 h
  IC50: 12.5 µM
[2]
  inhibition at 1 µM: 76%
MDA-MB-231 cells; MDA-MB-231, MTT, 72 h
  IC50: 11.6 µM
MDA-MB-468 cells; MDA-MB-468, MTT, 72 h
  IC50: 6.5 µM

## Cc1ccc(CNc2cc(Cc3n[nH]c(=O)c4ccccc34)cc(-c3c(C)noc3C)c2)cc1 [DDT45]
other
  melting point: 215 to 216 °C
[2]
  inhibition at 1 µM: 7%

## Cc1noc(C)c1-c1cc(Cc2n[nH]c(=O)c3ccccc23)cc(NCc2ccc(C(F)(F)F)cc2)c1 [DDT46]
other
  melting point: 220 to 221 °C
[2]
  inhibition at 1 µM: 39%

## CC(=O)Nc1cccc(CNc2cc(Cc3n[nH]c(=O)c4ccccc34)cc(-c3c(C)noc3C)c2)c1 [DDT47]
MCF-7 cells [1]; MCF7, MCF-7, MTT, 72 h
  IC50: 11.7 µM
[2]
  inhibition at 1 µM: 78%
MDA-MB-231 cells; MDA-MB-231, MTT, 72 h
  IC50: 17.1 µM
MDA-MB-468 cells; MDA-MB-468, MTT, 72 h
  IC50: 9.39 µM

## CC(=O)Nc1ccc(CNc2cc(Cc3n[nH]c(=O)c4ccccc34)cc(-c3c(C)noc3C)c2)cc1 [DDT48]
MCF-7 cells [1]; MCF7, MCF-7, MTT, 72 h
  IC50: > 20 µM
[2]
  inhibition at 1 µM: 96%
  IC50: 0.46 ± 0.17 µM
MDA-MB-231 cells; MDA-MB-231, MTT, 72 h
  IC50: 8.77 µM
MDA-MB-468 cells; MDA-MB-468, MTT, 72 h
  IC50: 9.09 µM

## Cc1noc(C)c1-c1cc(Cc2n[nH]c(=O)c3ccccc23)cc(NCc2cccc(N)c2)c1 [DDT49]
[2]
  inhibition at 1 µM: 72%
  IC50: 0.585 ± 0.225 µM
PARP1
  inhibition at 0.5 µM: 50%

## CCS(=O)(=O)Nc1cc(Cc2n[nH]c(=O)c3ccccc23)cc(-c2c(C)noc2C)c1 [DDT50]
other
  melting point: 195 to 196 °C
[2]
  inhibition at 1 µM: 69%

## CCCS(=O)(=O)Nc1cc(Cc2n[nH]c(=O)c3ccccc23)cc(-c2c(C)noc2C)c1 [DDT51]
other
  melting point: 165 to 166 °C
[2]
  inhibition at 1 µM: 4%

## CCCCS(=O)(=O)Nc1cc(Cc2n[nH]c(=O)c3ccccc23)cc(-c2c(C)noc2C)c1 [DDT52]
other
  melting point: 147 to 148 °C
[2]
  inhibition at 1 µM: 6%

## COCCS(=O)(=O)Nc1cc(Cc2n[nH]c(=O)c3ccccc23)cc(-c2c(C)noc2C)c1 [DDT53]
other
  melting point: 181 to 182 °C
[2]
  inhibition at 1 µM: 9%

## Cc1noc(C)c1-c1cc(Cc2n[nH]c(=O)c3ccccc23)cc(NS(=O)(=O)C2CC2)c1 [DDT55]
other
  melting point: 140 to 141 °C
[2]
  inhibition at 1 µM: 32%

## Cc1ccc(S(=O)(=O)Nc2cc(Cc3n[nH]c(=O)c4ccccc34)cc(-c3c(C)noc3C)c2)cc1 [DDT59]
MCF-7 cells [1]; MCF7, MCF-7, MTT, 72 h
  IC50: > 20 µM
[2]
  inhibition at 1 µM: 75%
  IC50: 0.909 ± 0.396 µM
PARP1
  inhibition at 0.5 µM: 8%
MDA-MB-231 cells; MDA-MB-231, MTT, 72 h
  IC50: 7.44 µM
MDA-MB-468 cells; MDA-MB-468, MTT, 72 h
  IC50: 11 µM

## Cc1cc(C)cc(S(=O)(=O)Nc2cc(Cc3n[nH]c(=O)c4ccccc34)cc(-c3c(C)noc3C)c2)c1 [DDT60]
other
  melting point: 155 to 156 °C
[2]
  inhibition at 1 µM: 28%

## CCc1ccc(S(=O)(=O)Nc2cc(Cc3n[nH]c(=O)c4ccccc34)cc(-c3c(C)noc3C)c2)cc1 [DDT62]
other
  melting point: 202 to 203 °C
[2]
  inhibition at 1 µM: 67%

## CCCc1ccc(S(=O)(=O)Nc2cc(Cc3n[nH]c(=O)c4ccccc34)cc(-c3c(C)noc3C)c2)cc1 [DDT63]
other
  melting point: 148 to 149 °C
[2]
  inhibition at 1 µM: 51%

## Cc1noc(C)c1-c1cc(Cc2n[nH]c(=O)c3ccccc23)cc(NS(=O)(=O)c2ccc(C(C)(C)C)cc2)c1 [DDT65]
other
  melting point: 154 to 155 °C
[2]
  inhibition at 1 µM: 44%

## COc1cccc(S(=O)(=O)Nc2cc(Cc3n[nH]c(=O)c4ccccc34)cc(-c3c(C)noc3C)c2)c1 [DDT68]
other
  melting point: 184 to 185 °C
[2]
  inhibition at 1 µM: 59%

## COc1ccc(S(=O)(=O)Nc2cc(Cc3n[nH]c(=O)c4ccccc34)cc(-c3c(C)noc3C)c2)cc1 [DDT69]
other
  melting point: 155 to 156 °C
[2]
  inhibition at 1 µM: 70%

## COc1ccc(S(=O)(=O)Nc2cc(Cc3n[nH]c(=O)c4ccccc34)cc(-c3c(C)noc3C)c2)cc1OC [DDT70]
other
  melting point: 165 to 166 °C
[2]
  inhibition at 1 µM: 32%

## CC(=O)Nc1cccc(S(=O)(=O)Nc2cc(Cc3n[nH]c(=O)c4ccccc34)cc(-c3c(C)noc3C)c2)c1 [DDT72]
other
  melting point: 192 to 193 °C
[2]
  inhibition at 1 µM: 4%

## Cc1noc(C)c1-c1cc(Cc2n[nH]c(=O)c3ccccc23)cc(NS(=O)(=O)c2ccc(OCc3ccccc3)cc2)c1 [DDT74]
other
  melting point: 148 to 149 °C
[2]
  inhibition at 1 µM: 34%

## Cc1noc(C)c1-c1cc(Cc2n[nH]c(=O)c3ccccc23)cc(NS(=O)(=O)c2ccc3c(c2)CCO3)c1 [DDT75]
other
  melting point: 162 to 163 °C
[2]
  inhibition at 1 µM: 42%

## Cc1cccc(CS(=O)(=O)Nc2cc(Cc3n[nH]c(=O)c4ccccc34)cc(-c3c(C)noc3C)c2)c1 [DDT77]
other
  melting point: 154 to 155 °C
[2]
  inhibition at 1 µM: 38%

## Cc1noc(C)c1-c1cc(Cc2n[nH]c(=O)c3ccccc23)cc(NS(=O)(=O)c2ccc(O)cc2)c1 [DDT79]
other
  melting point: 238 to 239 °C
[2]
  inhibition at 1 µM: 7%

## Cc1noc(C)c1-c1cc(Cc2n[nH]c(=O)c3ccccc23)cc(NS(=O)(=O)c2ccccc2C(F)(F)F)c1 [DDT80]
other
  melting point: 197 to 198 °C
[2]
  inhibition at 1 µM: 15%

## Cc1noc(C)c1-c1cc(Cc2n[nH]c(=O)c3ccccc23)cc(NS(=O)(=O)c2ccc(C(F)(F)F)cc2)c1 [DDT82]
other
  melting point: 193 to 194 °C
[2]
  inhibition at 1 µM: 24%

## Cc1noc(C)c1-c1cc(Cc2n[nH]c(=O)c3ccccc23)cc(NS(=O)(=O)c2ccc(F)cc2)c1 [DDT86]
other
  melting point: 151 to 152 °C
[2]
  inhibition at 1 µM: 7%

## Cc1noc(C)c1-c1cc(Cc2n[nH]c(=O)c3ccccc23)cc(NS(=O)(=O)c2ccccc2Cl)c1 [DDT87]
other
  melting point: 174 to 175 °C
[2]
  inhibition at 1 µM: 72%

## Cc1noc(C)c1-c1cc(Cc2n[nH]c(=O)c3ccccc23)cc(NS(=O)(=O)c2cccc(Cl)c2)c1 [DDT88]
other
  melting point: 142 to 143 °C
[2]
  inhibition at 1 µM: 17%

## Cc1noc(C)c1-c1cc(Cc2n[nH]c(=O)c3ccccc23)cc(NS(=O)(=O)c2ccc(Cl)cc2)c1 [DDT89]
other
  melting point: 147 to 148 °C
[2]
  inhibition at 1 µM: 72%

## Cc1noc(C)c1-c1cc(Cc2n[nH]c(=O)c3ccccc23)cc(NS(=O)(=O)c2ccccc2Br)c1 [DDT91]
other
  melting point: 171 to 172 °C
[2]
  inhibition at 1 µM: 8%

## Cc1noc(C)c1-c1cc(Cc2n[nH]c(=O)c3ccccc23)cc(NS(=O)(=O)c2cccc(Br)c2)c1 [DDT92]
other
  melting point: 147 to 148 °C
[2]
  inhibition at 1 µM: 4%

## Cc1noc(C)c1-c1cc(Cc2n[nH]c(=O)c3ccccc23)cc(NS(=O)(=O)c2cccc(S(C)(=O)=O)c2)c1 [DDT94]
other
  melting point: 243 to 244 °C
[2]
  inhibition at 1 µM: 5%

## Cc1sc2c(c1C)C(c1ccc(Cl)cc1)=N[C@@H](CC(=O)OC(C)(C)C)c1nnc(C)n1-2 [JQ1, reference compound]
MCF-7 cells [1]; MCF7, 72 h
  IC50: 18.4 µM
MDA-MB-231 cells; MDA-MB-231, 72 h
  IC50: 4.83 µM
MDA-MB-468 cells; MDA-MB-468, 72 h
  IC50: 3.24 µM
MCF-7 cells [3]
  inhibition of cell migration (in words): most potent inhibitory effect

— paper PMC10720709, “Design, synthesis, and evaluation of 4-(3-(3,5-dimethylisoxazol-4-yl)benzyl)phthalazin-1(2H)-one derivatives: potent BRD4 inhibitors with anti-breast cancer activity” (Frontiers in Pharmacology, 2023)
